{
  "source": "patent US20110312961A1",
  "about": "“2,5-Disubstituted Morpholine Orexin REceptor Antagonists” (priority 2008, published 2011)",
  "key": {"[1]": {"target": "T1, rat native α7 receptors (Rattus norvegicus, UniProt Q05941)", "T1 construct": "rat native α7 receptors in rat hippocampal membranes; from tissue; host or cells: rat (female Sprague-Dawley) hippocampus membranes", "T1 sequence (Q05941 23-502)": "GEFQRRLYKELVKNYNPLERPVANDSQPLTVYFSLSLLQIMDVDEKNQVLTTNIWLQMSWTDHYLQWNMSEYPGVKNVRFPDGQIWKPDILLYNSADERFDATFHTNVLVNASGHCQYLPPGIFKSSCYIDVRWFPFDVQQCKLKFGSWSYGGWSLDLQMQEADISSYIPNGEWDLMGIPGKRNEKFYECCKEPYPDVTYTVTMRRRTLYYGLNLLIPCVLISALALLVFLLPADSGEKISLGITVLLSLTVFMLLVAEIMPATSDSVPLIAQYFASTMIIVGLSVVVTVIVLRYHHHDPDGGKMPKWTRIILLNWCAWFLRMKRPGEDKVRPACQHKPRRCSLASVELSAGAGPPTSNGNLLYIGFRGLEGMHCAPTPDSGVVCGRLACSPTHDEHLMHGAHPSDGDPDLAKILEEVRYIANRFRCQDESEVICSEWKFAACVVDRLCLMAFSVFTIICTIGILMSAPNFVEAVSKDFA", "assay": "[3H]MLA radioligand binding, α7 NNR subtype, rat hippocampal membranes", "details": "read-out: Ki, inhibition of [3H]methyllycaconitine (MLA) binding to rat native α7 receptors", "description": "Rats (female, Sprague-Dawley), weighing 150-250 g, were maintained on a 12 h light/dark cycle and were allowed free access to water and food supplied by PMI Nutrition International, Inc. Animals were anesthetized with 70% CO2, and then decapitated. Brains were removed and placed on an ice-cold platform. The hippocampus was removed and placed in 10 volumes (weight:volume) of ice-cold preparative buffer (137 mM NaCl, 10.7 mM KCl, 5.8 mM KH2PO4, 8 mM Na2HPO4, 20 mM HEPES (free acid), 5 mM iodoacetamide, 1.6 mM EDTA, pH 7.4); PMSF, dissolved in methanol to a final concentration of 100 μM, was added and the tissue suspension was homogenized by Polytron. […] Protein was determined by the method of Lowry et al., J. Biol. Chem. 193: 265 (1951), using bovine serum albumin as the standard.\nThe binding of [^3H]MLA was measured using a modification of the methods of Davies et al., Neuropharmacol. […] The binding of [^3H]MLA was determined using a 2 h incubation at 21° C. […] Non-specific binding was determined by inclusion of 50 μM non-radioactive MLA in selected wells.\nThe inhibition of [^3H]MLA binding by test compounds was determined by including seven different concentrations of the test compound in selected wells. […] Inhibition constants (Ki values), reported in nM, were calculated from the IC50 values using the method of Cheng et al., Biochem. Pharmacol. 22: 3099-3108 (1973)."}, "[2]": {"target": "α7 nicotinic ACh receptors (Homo sapiens, UniProt P36544)", "sequence (P36544 23-502)": "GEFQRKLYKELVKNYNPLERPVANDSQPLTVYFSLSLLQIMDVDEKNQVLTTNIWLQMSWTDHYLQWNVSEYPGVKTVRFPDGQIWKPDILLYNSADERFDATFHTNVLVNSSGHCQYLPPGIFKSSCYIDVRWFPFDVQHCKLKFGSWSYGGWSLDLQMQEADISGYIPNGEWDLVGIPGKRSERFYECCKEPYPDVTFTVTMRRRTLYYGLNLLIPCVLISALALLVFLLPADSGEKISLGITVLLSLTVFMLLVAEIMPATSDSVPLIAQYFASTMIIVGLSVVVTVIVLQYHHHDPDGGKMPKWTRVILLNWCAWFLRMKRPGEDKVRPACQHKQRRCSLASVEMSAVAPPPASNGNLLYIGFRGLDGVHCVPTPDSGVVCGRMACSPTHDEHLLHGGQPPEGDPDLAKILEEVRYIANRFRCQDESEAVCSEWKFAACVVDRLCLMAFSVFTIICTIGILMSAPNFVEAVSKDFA", "assay": "Electrophysiology at α7, dose-response and co-application with ACh (Dynaflow chip)", "assay_type": "cell-based", "description": "Hump currents are defined as the tail current observed during co-application with endogenous ACh following agonist removal.\nThe channels were prepared as follows: Control solution (channel #2), application ligand itself (channel #3), application of acetylcholine itself (channel #1), and application of mixture of acetylcholine and ligand (channel #4).\nCurve 1, FIG. 7B: The bar above the curve indicates time of ACh application. The curve represents current induced by a one second application of 70 μM ACh. The curve illustrates the result from moving the cell from channel #2 to channel #1 for a 1 second application of ACh and back to channel 2 (washout).\nCurve 4, FIG. 7B: Curve 4 represents a repetition of Curve 1 at the end of measurements after application of the ligand and ACh/ligand mixture (recovery).\nCurve 2, FIG. 7B: The down/up arrows indicates time of application."}, "[3]": {"tested_on": "Sprague-Dawley rats", "assay": "Complete Freund's adjuvant (CFA)-induced thermal hyperalgesia", "assay_type": "in vivo, rat", "details": "0.1, 1 or 10 mg/kg s.c., 1 hour post-dose, vs vehicle", "description": "Injection of complete Freund's adjuvant (CFA) in rats is commonly used to evaluate compounds with potential for use as drugs in treatment of mono-arthritis (osteo-arthritis) and other inflammatory conditions. Signs of hyperalgesia develop within 24 h (Schaible and Grubb, 1993).\n(2S,3R)—N-2-((3-pyridinyl)methyl)-1-azabicyclo[2.2.2]oct-3-yl)-3,5-difluorobenzamide was evaluated for possible analgesia effect in the CFA-induced thermal hyperalgesia test in rats using methods similar to those described by Walker and colleagues (2003). Briefly, adult male Sprague-Dawley rats (BioLasco, Taiwan) weighing 180±20 g on receipt were randomly assigned to treatment groups of n=8 per group. Animals each received a sub plantar injection (0.1 mL) of CFA (DIFCO, 264010; 0.1% solution) to the right hind paw at 24 h prior to experimental testing. Thermal hyperalgesia was tested using a Paw/Tail stimulator analgesia meter (IITC Model-336G, IITC, USA) with a thermally regulated glass floor set at 30° C. […] The time required for the animal to withdraw the paw from the thermal stimulus was automatically recorded. […]\nTwenty-four hours after CFA injection, subjects were pre-selected (for clear presence of thermal hyperalgesia) for experimentation only if the latency to withdrawal was less than 75% of the baseline. […] The post-treatment level of thermal hyperalgesia was then measured at 60 minutes post-treatment. […]"}, "[4]": {"assay": "Aqueous solubility of salts (salt screen)", "assay_type": "physicochemical", "details": "free base form"}},
  "note": "pEC50, pKi: −log10 of the molar value. Read-outs that look alike come from different tables or passages of the source.",
  "data": [
    {"smiles": "O=C(N[C@@H]1C2CCN(CC2)[C@H]1Cc1cccnc1)c1cc(F)cc(F)c1", "note": "[Compound A]", "values": [
      {"measurement": "pKi", "setting": "[1]", "result": 7.00},
      {"measurement": "type of activity at the α7 NNR", "setting": "[2]", "result": "partial agonists"},
      {"measurement": "current on application of the ligand following application of ACh", "setting": "[2]; 200 nM ligand, Curve 3 FIG. 7B", "result": "profound “hump” current"},
      {"measurement": "current on application of the ligand alone", "setting": "[2]; 200 nM, 5 second application, Curve 2 FIG. 7B", "result": "do not produce robust macro currents"},
      {"measurement": "effect on ACh-induced current", "setting": "[2]; co-application of compound with ACh, FIG. 6", "result": "enhances ACh-induced current"},
      {"measurement": "pEC50", "setting": "[2]; co-application with ACh, 100-500 nM range, n=4, FIG. 7C, read-out: EC50 of hump current", "result": 6.92},
      {"measurement": "concentration at Emax of hump current", "setting": "[2]; co-application with ACh, FIG. 7C", "result": "approximately 500 nM"},
      {"measurement": "Emax", "setting": "[2]; dose-response, FIG. 5", "result": 54.4, "unit": "%"},
      {"measurement": "pEC50", "setting": "[2]; dose-response, FIG. 5, read-out: EC50 at α7 nicotinic receptors", "result": 5.80},
      {"measurement": "analgesic effect on CFA-induced thermal hyperalgesia", "setting": "[3]", "result": "not associated with any significant analgesic effect"},
      {"measurement": "water solubility", "setting": "[4]", "result": "limited water solubility"}
    ]}
  ]
}
